{
  "source": "patent US20260053812A1",
  "about": "“METHODS OF TREATING HYPERTENSION WITH A COMBINATION OF AN ALDOSTERONE SYNTHASE INHIBITOR AND A DIURETIC” (Mineralys Therapeutics, Inc., priority 2022, published 2026)",
  "assay": "Adverse events (TEAEs, SAEs, AESI; Safety Analysis Set)",
  "text": "In analyses performed on the Safety Analysis Set, subjects will be analyzed according to their actual treatment received.",
  "data": [
    {"smiles": "CC(=O)N[C@H]1CC[C@H](NC(=O)CN2CCN(c3nncc(-c4ccc(C)cc4)n3)CC2)CC1", "note": "[Compound A HBr]", "values": [
      {"measurement": "AE requiring dose titration: Hyperkalemia", "setting": "100 mg QD Pooled, N 60", "value": "2 (3.3%)"},
      {"measurement": "AE requiring dose titration: Hyponatremia", "setting": "100 mg QD Pooled, N 60", "value": "1 (1.7%)"},
      {"measurement": "AE requiring dose titration: Other possibly related", "setting": "100 mg QD Pooled, N 60", "value": 0},
      {"measurement": "AE requiring dose titration: Other unrelated", "setting": "100 mg QD Pooled, N 60", "value": 0},
      {"measurement": "AE requiring study drug discontinuation: Hyperkalemia", "setting": "100 mg QD Pooled, N 60", "value": "2 (3.3%)"},
      {"measurement": "AE requiring study drug discontinuation: Hyponatremia", "setting": "100 mg QD Pooled, N 60", "value": "1 (1.7%)"},
      {"measurement": "AE requiring study drug discontinuation: Hypotension", "setting": "100 mg QD Pooled, N 60", "value": "2 (3.3%)"},
      {"measurement": "AE requiring study drug discontinuation: Other possibly related", "setting": "100 mg QD Pooled, N 60", "value": "1 (1.7%)"},
      {"measurement": "AE requiring study drug discontinuation: Other unrelated", "setting": "100 mg QD Pooled, N 60", "value": "4 (6.7%)"},
      {"measurement": "Serious adverse events (SAEs) related to the study medication", "setting": "Example 1 analysis, whole trial", "value": "No serious adverse events"},
      {"measurement": "Subjects with TEAE resulting in dose modification", "setting": "Part 1", "value": 24, "unit": "subjects"},
      {"measurement": "AE requiring dose titration: Hyperkalemia", "setting": "Part 1 100 mg QD, N 29", "value": "1 (3.4%)"},
      {"measurement": "AE requiring dose titration: Hyponatremia", "setting": "Part 1 100 mg QD, N 29", "value": 0},
      {"measurement": "AE requiring dose titration: Other possibly related", "setting": "Part 1 100 mg QD, N 29", "value": 0},
      {"measurement": "AE requiring dose titration: Other unrelated", "setting": "Part 1 100 mg QD, N 29", "value": 0},
      {"measurement": "AE requiring study drug discontinuation: Hyperkalemia", "setting": "Part 1 100 mg QD, N 29", "value": "2 (6.9%)"},
      {"measurement": "AE requiring study drug discontinuation: Hyponatremia", "setting": "Part 1 100 mg QD, N 29", "value": 0},
      {"measurement": "AE requiring study drug discontinuation: Hypotension", "setting": "Part 1 100 mg QD, N 29", "value": "1 (3.4%)"},
      {"measurement": "AE requiring study drug discontinuation: Other possibly related", "setting": "Part 1 100 mg QD, N 29", "value": "1 (3.4%)"},
      {"measurement": "AE requiring study drug discontinuation: Other unrelated", "setting": "Part 1 100 mg QD, N 29", "value": "3 (6.0%)"},
      {"measurement": "On-treatment TEAE, Cardiac disorders, %", "setting": "Part 1, 12.5 mg BID (N = 22)", "value": "(4.5) %"},
      {"measurement": "On-treatment TEAE, Cortisol decreased, %", "setting": "Part 1, 12.5 mg BID (N = 22)", "value": "(9.1) %"},
      {"measurement": "On-treatment TEAE, Cortisol decreased, Mild, %", "setting": "Part 1, 12.5 mg BID (N = 22)", "value": "(9.1) %"},
      {"measurement": "On-treatment TEAE, General disorders and administration site conditions, %", "setting": "Part 1, 12.5 mg BID (N = 22)", "value": "(9.1) %"},
      {"measurement": "On-treatment TEAE, General disorders and administration site conditions, Mild, %", "setting": "Part 1, 12.5 mg BID (N = 22)", "value": "(4.5) %"},
      {"measurement": "On-treatment TEAE, Glomerular filtration rate decreased, %", "setting": "Part 1, 12.5 mg BID (N = 22)", "value": "(13.6) %"},
      {"measurement": "On-treatment TEAE, Glomerular filtration rate decreased, Mild, %", "setting": "Part 1, 12.5 mg BID (N = 22)", "value": "(13.6) %"},
      {"measurement": "On-treatment TEAE, Hyperkalaemia, %", "setting": "Part 1, 12.5 mg BID (N = 22)", "value": "(22.7) %"},
      {"measurement": "On-treatment TEAE, Hyperkalaemia, Mild, %", "setting": "Part 1, 12.5 mg BID (N = 22)", "value": "(18.2) %"},
      {"measurement": "On-treatment TEAE, Hyperkalaemia, Moderate, %", "setting": "Part 1, 12.5 mg BID (N = 22)", "value": "(4.5) %"},
      {"measurement": "On-treatment TEAE, Infections and infestations, %", "setting": "Part 1, 12.5 mg BID (N = 22)", "value": "(4.5) %"},
      {"measurement": "On-treatment TEAE, Infections and infestations, Moderate, %", "setting": "Part 1, 12.5 mg BID (N = 22)", "value": "(4.5) %"},
      {"measurement": "On-treatment TEAE, Investigations, %", "setting": "Part 1, 12.5 mg BID (N = 22)", "value": "(27.3) %"},
      {"measurement": "On-treatment TEAE, Investigations, Mild, %", "setting": "Part 1, 12.5 mg BID (N = 22)", "value": "(22.7) %"},
      {"measurement": "On-treatment TEAE, Investigations, Moderate, %", "setting": "Part 1, 12.5 mg BID (N = 22)", "value": "(4.5) %"},
      {"measurement": "On-treatment TEAE, Metabolism and nutrition disorders, %", "setting": "Part 1, 12.5 mg BID (N = 22)", "value": "(22.7) %"},
      {"measurement": "On-treatment TEAE, Metabolism and nutrition disorders, Mild, %", "setting": "Part 1, 12.5 mg BID (N = 22)", "value": "(18.2) %"},
      {"measurement": "On-treatment TEAE, Metabolism and nutrition disorders, Moderate, %", "setting": "Part 1, 12.5 mg BID (N = 22)", "value": "(4.5) %"},
      {"measurement": "On-treatment TEAE, Nervous system disorders, %", "setting": "Part 1, 12.5 mg BID (N = 22)", "value": "(4.5) %"},
      {"measurement": "On-treatment TEAE, Nervous system disorders, Mild, %", "setting": "Part 1, 12.5 mg BID (N = 22)", "value": "(4.5) %"},
      {"measurement": "On-treatment TEAE, Orthostatic hypotension, %", "setting": "Part 1, 12.5 mg BID (N = 22)", "value": "(4.5) %"},
      {"measurement": "On-treatment TEAE, Orthostatic hypotension, Mild, %", "setting": "Part 1, 12.5 mg BID (N = 22)", "value": "(4.5) %"},
      {"measurement": "On-treatment TEAE, Psychiatric disorders, %", "setting": "Part 1, 12.5 mg BID (N = 22)", "value": "(4.5) %"},
      {"measurement": "On-treatment TEAE, Psychiatric disorders, Moderate, %", "setting": "Part 1, 12.5 mg BID (N = 22)", "value": "(4.5) %"},
      {"measurement": "On-treatment TEAE, Vascular disorders, %", "setting": "Part 1, 12.5 mg BID (N = 22)", "value": "(9.1) %"},
      {"measurement": "On-treatment TEAE, Vascular disorders, Mild, %", "setting": "Part 1, 12.5 mg BID (N = 22)", "value": "(9.1) %"},
      {"measurement": "Subjects with any On-treatment TEAEs leading to withdrawal from study drug, %", "setting": "Part 1, 12.5 mg BID (N = 22)", "value": 4.5, "unit": "%"},
      {"measurement": "Subjects with any On-treatment TEAEs, Mild, %", "setting": "Part 1, 12.5 mg BID (N = 22)", "value": "(36.4) %"},
      {"measurement": "Subjects with any On-treatment TEAEs, Moderate, %", "setting": "Part 1, 12.5 mg BID (N = 22)", "value": "(22.7) %"},
      {"measurement": "TEAE leading to permanent discontinuation from study drug, Orthostatic hypotension, %", "setting": "Part 1, 12.5 mg BID (N = 22)", "value": 4.5, "unit": "%"},
      {"measurement": "TEAE leading to permanent discontinuation from study drug, Vascular disorders, %", "setting": "Part 1, 12.5 mg BID (N = 22)", "value": 4.5, "unit": "%"},
      {"measurement": "On-treatment TEAE, Cardiac disorders, %", "setting": "Part 1, 12.5 mg QD (N = 23)", "value": "(8.7) %"},
      {"measurement": "On-treatment TEAE, Dizziness, %", "setting": "Part 1, 12.5 mg QD (N = 23)", "value": "(4.3) %"},
      {"measurement": "On-treatment TEAE, Gastrointestinal disorders, %", "setting": "Part 1, 12.5 mg QD (N = 23)", "value": "(8.7) %"},
      {"measurement": "On-treatment TEAE, Gastrointestinal disorders, Mild, %", "setting": "Part 1, 12.5 mg QD (N = 23)", "value": "(4.3) %"},
      {"measurement": "On-treatment TEAE, General disorders and administration site conditions, %", "setting": "Part 1, 12.5 mg QD (N = 23)", "value": "(4.3) %"},
      {"measurement": "On-treatment TEAE, Glomerular filtration rate decreased, %", "setting": "Part 1, 12.5 mg QD (N = 23)", "value": "(4.3) %"},
      {"measurement": "On-treatment TEAE, Glomerular filtration rate decreased, Mild, %", "setting": "Part 1, 12.5 mg QD (N = 23)", "value": "(4.3) %"},
      {"measurement": "On-treatment TEAE, Hyperkalaemia, %", "setting": "Part 1, 12.5 mg QD (N = 23)", "value": "(26.1) %"},
      {"measurement": "On-treatment TEAE, Hyperkalaemia, Mild, %", "setting": "Part 1, 12.5 mg QD (N = 23)", "value": "(17.4) %"},
      {"measurement": "On-treatment TEAE, Hyperkalaemia, Moderate, %", "setting": "Part 1, 12.5 mg QD (N = 23)", "value": "(4.3) %"},
      {"measurement": "On-treatment TEAE, Hyperkalaemia, Severe, %", "setting": "Part 1, 12.5 mg QD (N = 23)", "value": "(4.3) %"},
      {"measurement": "On-treatment TEAE, Hypertension, %", "setting": "Part 1, 12.5 mg QD (N = 23)", "value": "(8.7) %"},
      {"measurement": "On-treatment TEAE, Hypertension, Moderate, %", "setting": "Part 1, 12.5 mg QD (N = 23)", "value": "(4.3) %"},
      {"measurement": "On-treatment TEAE, Infections and infestations, %", "setting": "Part 1, 12.5 mg QD (N = 23)", "value": "(13.0) %"},
      {"measurement": "On-treatment TEAE, Infections and infestations, Mild, %", "setting": "Part 1, 12.5 mg QD (N = 23)", "value": "(13.0) %"},
      {"measurement": "On-treatment TEAE, Investigations, %", "setting": "Part 1, 12.5 mg QD (N = 23)", "value": "(13.0) %"},
      {"measurement": "On-treatment TEAE, Investigations, Mild, %", "setting": "Part 1, 12.5 mg QD (N = 23)", "value": "(13.0) %"},
      {"measurement": "On-treatment TEAE, Metabolism and nutrition disorders, %", "setting": "Part 1, 12.5 mg QD (N = 23)", "value": "(26.1) %"},
      {"measurement": "On-treatment TEAE, Metabolism and nutrition disorders, Mild, %", "setting": "Part 1, 12.5 mg QD (N = 23)", "value": "(17.4) %"},
      {"measurement": "On-treatment TEAE, Metabolism and nutrition disorders, Moderate, %", "setting": "Part 1, 12.5 mg QD (N = 23)", "value": "(4.3) %"},
      {"measurement": "On-treatment TEAE, Nervous system disorders, %", "setting": "Part 1, 12.5 mg QD (N = 23)", "value": "(8.7) %"},
      {"measurement": "On-treatment TEAE, Nervous system disorders, Mild, %", "setting": "Part 1, 12.5 mg QD (N = 23)", "value": "(8.7) %"},
      {"measurement": "On-treatment TEAE, Orthostatic hypotension, %", "setting": "Part 1, 12.5 mg QD (N = 23)", "value": "(8.7) %"},
      {"measurement": "On-treatment TEAE, Orthostatic hypotension, Mild, %", "setting": "Part 1, 12.5 mg QD (N = 23)", "value": "(8.7) %"},
      {"measurement": "On-treatment TEAE, Urinary tract infection, %", "setting": "Part 1, 12.5 mg QD (N = 23)", "value": "(4.3) %"},
      {"measurement": "On-treatment TEAE, Urinary tract infection, Mild, %", "setting": "Part 1, 12.5 mg QD (N = 23)", "value": "(4.3) %"},
      {"measurement": "On-treatment TEAE, Vascular disorders, %", "setting": "Part 1, 12.5 mg QD (N = 23)", "value": "(13.0) %"}
    ]}
  ]
}
